The results in this text go back to patent publication US20230302150A1, “ANTIBODY-TLR AGONIST CONJUGATES, METHODS AND USES THEREOF” (Ambrx, Inc., priority 2020, published 2023).

The term EC50 denotes the concentration needed to bring the measured effect to its halfway point.

For one test, the target named is T1, TLR8 (Homo sapiens, UniProt Q9NR97).
T1 sequence (Q9NR97 27-1041): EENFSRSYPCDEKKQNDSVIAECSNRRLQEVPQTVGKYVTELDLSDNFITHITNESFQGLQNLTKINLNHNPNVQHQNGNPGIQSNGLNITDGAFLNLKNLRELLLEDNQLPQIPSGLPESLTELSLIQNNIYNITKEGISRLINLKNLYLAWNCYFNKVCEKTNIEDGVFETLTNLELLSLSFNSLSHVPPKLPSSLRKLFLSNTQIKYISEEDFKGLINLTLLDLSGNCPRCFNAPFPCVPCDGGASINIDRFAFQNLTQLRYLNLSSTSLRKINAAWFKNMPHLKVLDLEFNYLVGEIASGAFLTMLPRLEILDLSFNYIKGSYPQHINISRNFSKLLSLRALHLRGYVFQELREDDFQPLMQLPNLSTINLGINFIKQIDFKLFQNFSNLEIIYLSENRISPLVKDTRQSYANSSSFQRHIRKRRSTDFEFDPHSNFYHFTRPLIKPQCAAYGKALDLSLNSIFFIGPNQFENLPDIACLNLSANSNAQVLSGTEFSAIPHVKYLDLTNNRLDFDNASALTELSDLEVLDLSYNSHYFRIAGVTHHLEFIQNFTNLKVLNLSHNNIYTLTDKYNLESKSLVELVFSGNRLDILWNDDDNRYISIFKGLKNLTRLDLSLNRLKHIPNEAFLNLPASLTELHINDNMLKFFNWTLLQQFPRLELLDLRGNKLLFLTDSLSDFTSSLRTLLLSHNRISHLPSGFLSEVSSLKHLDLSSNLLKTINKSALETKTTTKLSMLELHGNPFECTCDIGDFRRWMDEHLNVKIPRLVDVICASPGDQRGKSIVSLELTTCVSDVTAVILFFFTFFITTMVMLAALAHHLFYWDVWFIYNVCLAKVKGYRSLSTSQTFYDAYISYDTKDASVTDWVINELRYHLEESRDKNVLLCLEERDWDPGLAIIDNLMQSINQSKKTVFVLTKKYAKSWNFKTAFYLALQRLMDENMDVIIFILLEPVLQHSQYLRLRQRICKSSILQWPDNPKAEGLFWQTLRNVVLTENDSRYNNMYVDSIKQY
Briefly: TLR8 reporter assay. Type of test: cell-based. (A reporter such as luciferase makes a cellular process visible.)

For the next test, the target named is T2, hTLR7 (Homo sapiens, UniProt Q9NYK1).
T2 construct: expressed in transfected cells; host or cells: HEK-Blue hTLR7 reporter cell line
T2 sequence (Q9NYK1 27-1049): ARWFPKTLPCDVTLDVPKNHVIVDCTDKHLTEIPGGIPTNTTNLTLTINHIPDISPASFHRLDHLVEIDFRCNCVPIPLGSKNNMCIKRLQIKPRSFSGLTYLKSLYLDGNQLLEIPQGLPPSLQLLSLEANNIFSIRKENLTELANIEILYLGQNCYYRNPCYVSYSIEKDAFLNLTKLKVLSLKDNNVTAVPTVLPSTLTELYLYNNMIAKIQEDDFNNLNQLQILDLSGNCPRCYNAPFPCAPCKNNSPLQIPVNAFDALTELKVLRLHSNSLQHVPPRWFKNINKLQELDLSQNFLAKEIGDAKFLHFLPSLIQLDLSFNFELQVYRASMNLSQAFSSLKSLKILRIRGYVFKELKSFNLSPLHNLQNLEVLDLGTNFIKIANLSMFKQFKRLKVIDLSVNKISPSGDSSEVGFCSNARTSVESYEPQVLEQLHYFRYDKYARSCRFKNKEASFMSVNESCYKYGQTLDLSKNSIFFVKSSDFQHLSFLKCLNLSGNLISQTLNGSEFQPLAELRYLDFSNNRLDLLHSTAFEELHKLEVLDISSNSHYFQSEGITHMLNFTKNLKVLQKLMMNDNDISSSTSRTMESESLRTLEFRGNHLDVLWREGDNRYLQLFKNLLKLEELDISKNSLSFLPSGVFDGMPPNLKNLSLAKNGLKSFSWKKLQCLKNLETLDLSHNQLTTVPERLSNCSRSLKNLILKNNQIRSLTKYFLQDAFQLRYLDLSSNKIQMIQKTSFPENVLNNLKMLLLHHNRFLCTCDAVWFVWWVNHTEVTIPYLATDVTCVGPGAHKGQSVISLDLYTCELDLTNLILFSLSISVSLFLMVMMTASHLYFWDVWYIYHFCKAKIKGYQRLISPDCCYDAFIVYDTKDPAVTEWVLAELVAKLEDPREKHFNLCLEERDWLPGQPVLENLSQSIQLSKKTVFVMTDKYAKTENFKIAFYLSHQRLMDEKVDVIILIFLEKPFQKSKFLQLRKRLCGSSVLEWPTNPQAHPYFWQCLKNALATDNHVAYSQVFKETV
Description: HEK-Blue hTLR7 reporter assay (NF-kB-induced SEAP, Quanti-Blue). Type of test: cell-based. The protocol:
HEK-Blue™ hTLR7 cells were incubated in HEK-Blue™ Detection medium and stimulated with increasing concentrations of TLR7 or TLR8 or TLR7/8 agonists. […] The EC50 was determined from dose-response curve using Prism Software.

The subject of test [1] is SKBR3 HER2 high expressing tumor cell line / RAW-Blue cells. Description: RAW-Blue co-culture assay with SKBR3 tumor cells (HER2 ISACs). Type of test: cell-based, human. The protocol:
(§1) RAW-Blue™ cells (Invivogen, San Diego, CA) were co-cultured with human tumor cells with different levels of HER2 expression level at 1:1 E:T ratio with total number of 1 million cells per well in the 96 wells plate. Different concentration of small molecule TLR7 agonist and conjugated ISACs, (Immune Stimulating Antibody Conjugates), were added to the co-culture cell medium. After 24 h incubation, the levels of NF-kB-induced SEAP from the RAW-Blue™ cells were determined by Quanti-Blue detection reagents (Invivogen, San Diego, CA) with readings at OD 655 nm. The dose-response curves were generated using Prism Software.

Test [2] has as its system SKOV3 HER2 high expressing tumor cell line / RAW-Blue cells. Briefly: RAW-Blue co-culture assay with SKOV3 tumor cells. Format: cell-based, human. Particulars: conjugated to anti-HER2 antibody; data not shown. The protocol: as §1
The mark [3] stands for this setting: Table 11, TLR7 activities, read-out: EC50.
The mark [4] stands for this setting: Table 12, TLR7 agonists attached to a linker, read-out: TLR Agonist Payload + Linkers EC50.
The mark [5] stands for this setting: Table 15, drug linker, read-out: TLR Agonist + Linker (DL) - EC50.
[6] abbreviates: Table 15, pAF containing final metabolite, read-out: TLR Agonist + Linker + nnAA (DL-pAF) - EC50.
Where [7] appears, read: Table 19, TLR7, drug-linkers with PEG shielding, read-out: EC50.

Molecules are shown by their SMILES. Like-named read-outs stand apart in the source and are kept apart here.

Compound `CCCN(CCC)C(=O)C1=Cc2ccc(-c3ccc(C(=O)N4CCCC4)cc3)cc2N=C(N)C1` [Motolimod, reference compound] came in with an EC50 at TLR8 of 1.43 µM.

Regarding `CCCCOc1nc(N)c2[nH]c(=O)n(Cc3ccc(CN4CCC(C5CCN(C(=O)CON)CC5)CC4)cc3)c2n1` [AXC-901, 6-amino-9-(4-((1′-(2-(aminooxy)acetyl)-4,4′-bipiperidin-1-yl)methyl)benzyl)-2-butoxy-7H-purin-8(9H)-one], the “TLR7 activity (comparison in words)” value on hTLR7 was “highest potency among different payload linkers”. Besides, the EC50 on hTLR7 (Table 13, TLR7, read-out: EC50) worked out at 0.048 µM. Also, the “tumor dependent ISAC activity” value in test [1] was “highest HER2 dependent TLR7 activities”.

Regarding `CCCCOc1nc(N)c2[nH]c(=O)n(Cc3ccc(CN4CCC(CCNC(=O)c5cc(F)c(N)c(F)c5)CC4)cc3)c2n1` [AXC-887, 4-amino-N-(2-(1-(4-((6-amino-2-butoxy-8-oxo-7H-purin-9(8H)-yl)methyl)benzyl)piperidin-4-yl)ethyl)-3,5-difluorobenzamide], the EC50 at hTLR7 (setting [3]) is 0.0046 µM; on hTLR7 (text to Table 11, TLR7, read-out: EC50), below 0.01 µM; at TLR8, 3.73 µM.

On to `CCCCOc1nc(N)c2[nH]c(=O)n(Cc3ccc(CNC(=O)CCOCCON)cc3)c2n1` [AXC-863], for which the EC50 was 0.864 µM at hTLR7 (setting [4]), 0.864 µM at hTLR7 (setting [5]), 0.287 µM at hTLR7 (setting [6]) and 0.32 µM at hTLR7 (setting [7]). Further, the “tumor dependent ISAC activity” value in test [1] and in test [2] was “potent dose dependent activities only in the presence of HER2 high expressing tumor cell lines” in each case.

Regarding `CCCCOc1nc(N)c2[nH]c(=O)n(Cc3ccc(CN4CCC(CCNC(=O)CON)CC4)cc3)c2n1` [AXC-879, N-(2-(1-(4-((6-amino-2-butoxy-8-oxo-7H-purin-9(8H)-yl)methyl)benzyl)piperidin-4-yl)ethyl)-2-(aminooxy)acetamide], the “TLR7 activity (comparison in words)” value at hTLR7 is “highest potency among different TLR-agonist (payload) linkers”. Further, the results for the EC50 on hTLR7 (setting [4]), on hTLR7 (setting [5]) and at hTLR7 (setting [6]) were 0.151 µM, 0.151 µM and 0.09 µM, respectively. Also, the “tumor dependent ISAC activity” value in test [1] is given as “highest HER2 dependent TLR7 activities”.

Consider `CCCCc1nc2c(N)nc3ccccc3c2n1CCCCNC(=O)c1cccc(N)c1` [AXC-803, 3-amino-N-(4-(4-amino-2-butyl-1H-imidazo[4,5-c]quinolin-1-yl)butyl)benzamide], for which the EC50 on hTLR7 (Table 10, read-out: TLR7 EC50) is 0.332 µM.

For the compound `CCCCOc1nc(N)c2[nH]c(=O)n(Cc3ccc(CN4CCC(CCNC(=O)[C@@H](N)CCCCNC(=O)CON)CC4)cc3)c2n1` [AXC-913, (S)-2-amino-N-(2-(1-(4-((6-amino-2-butoxy-8-oxo-7,8-dihydro-9H-purin-9-yl)methyl)benzyl)piperidin-4-yl)ethyl)-6-(2-(aminooxy)acetamido)hexanamide], at hTLR7 (Table 18, TLR7, PEG shielding, read-out: EC50), the EC50 worked out at 0.0296 µM.

On to `CCCCc1nc2c(N)nc3ccccc3c2n1CCCCNC(=O)c1ccc(N(C)C)cc1` [AXC-740, N-(4-(4-amino-2-butyl-1H-imidazo[4,5-c]quinolin-1-yl)butyl)-4-(dimethylamino)benzamide], for which, at hTLR7 (Table 10, read-out: TLR7 EC50), the concentration giving a half-maximal response (EC50) was determined as 0.116 µM.

In the case of `CCCCOc1cc2c([nH]c(=O)n2Cc2ccc(CN3CCC(CCNC(=O)c4ccc(N)cc4)CC3)cc2)c(N)n1` [AXC-905, 4-amino-N-(2-(1-(4-((4-amino-6-butoxy-2-oxo-2,3-dihydro-1H-imidazo[4,5-c]pyridin-1-yl)methyl)benzyl)piperidin-4-yl)ethyl)benzamidebenzamide], the EC50 on hTLR7 (Table 14, read-out: TLR7 EC50) was found to be 0.0026 µM.

On to `CCCCCC(=O)Nc1nc(OCCCC)nc2c1[nH]c(=O)n2Cc1ccc(CN2CCC(CCN)CC2)cc1` [AXC-963, N-(9-(4-((4-(2-aminoethyl)piperidin-1-yl)methyl)benzyl)-2-butoxy-8-oxo-8,9-dihydro-7H-purin-6-yl)hexanamide], for which the EC50 at hTLR7 (setting [7]) worked out at 0.0194 µM.

As to `CCCCOc1nc(NC(=O)CCOCCOCCOC)c2[nH]c(=O)n(Cc3ccc(CN4CCC(CCNC(=O)CON)CC4)cc3)c2n1` [AXC-983, N-(9-(4-((4-(2-(2-(aminooxy)acetamido)ethyl)piperidin-1-yl)methyl)benzyl)-2-butoxy-8-oxo-8,9-dihydro-7H-purin-6-yl)-3-(2-(2-methoxyethoxy)ethoxy)propanamide], the EC50 on hTLR7 (setting [7]) amounted to 0.0533 µM.

With `CCCCOc1nc(NC(C)=O)c2[nH]c(=O)n(Cc3ccc(CN4CCC(C5CCNCC5)CC4)cc3)c2n1` [AXC-980, N-(9-(4-(4,4′-bipiperidin-1-ylmethyl)benzyl)-2-butoxy-8-oxo-8,9-dihydro-7H-purin-6-yl)acetamide], at hTLR7 (setting [7]), the EC50 is 0.0296 µM.

For the compound `CCCCCNc1nc(N)nc2ccn(Cc3cc(CN4CCN(CCCNC(=O)CON)CC4)ccc3OC)c12` [AXC-860, reference compound], the EC50 on hTLR7 (Table 14, read-out: TLR7 EC50) is 0.12 µM.

For the compound `CCCCOc1nc(N)c2[nH]c(=O)n(Cc3ccc(CNCCCCCCN)cc3)c2n1` [AXC-881, 6-amino-9-(4-((6-aminohexylamino)methyl)benzyl)-2-butoxy-7H-purin-8(9H)-one], the EC50 on hTLR7 (setting [3]) came out at 0.0873 µM.
